This note sets out measurements from US12398154B2, “Azaquinazoline pan-KRas inhibitors” (Mirati Therapeutics, Inc., priority 2020, dated 2025).

One may read the IC50 as the concentration needed to halve the response being measured.

Bounds are passed on as bounds.

Test [1] concerns pERK in HCT116 cells. Briefly: Inhibition of KRas phosphorylation of ERK (Cisbio HTRF pERK assay). The settings on record: Homo sapiens, HCT-116, read-out: Inhibition (HTRF IC50) of KRas-mediated Phosphorylation of ERK, HCT116.
The subject of test [2] is phospho-ERK in MKN1 (WTdep) cells. Briefly: Inhibition of KRas-mediated phosphorylation of ERK (in-cell western). Type of test: cell-based. The conditions noted are these: Homo sapiens, MKN-1, 3 hours compound, phospho-ERK normalized to GAPDH. In short, it runs like this: (§1)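 Cells were treated with compound for 3 hours (0.5% DMSO final), then fixed with formaldehyde and permeabilized with ice-cold methanol. Phospho-ERK (Thr202/Tyr204) was detected by antibody and normalized to GAPDH per well, expressed as percent of DMSO control, and IC50 obtained by 4-parameter fit.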

The test system of test [3] is phospho-ERK in PSN-1 (G12R) cells. The test is described as above. It counts as cell-based. The settings on record: Homo sapiens, PSN1, 3 hours compound, phospho-ERK normalized to GAPDH. An outline of the steps: as §1
Test [4] deals with phospho-ERK in A549 (G12S) cells. The test is described as above. It counts as cell-based. The conditions noted are these: Homo sapiens, 3 hours compound, phospho-ERK normalized to GAPDH. An outline of the steps: as §1
Test [5] concerns phospho-ERK in AsPC-1 (G12D) cells. The test is described as above. The settings on record: Homo sapiens, ASPC1, 3 h, 3 hours compound, phospho-ERK normalized to GAPDH. It counts as cell-based. An outline of the steps:
as §1

Test [6] has as its system phospho-ERK in NCI-H358 (G12C) cells. The description is as above. Type of test: cell-based. The conditions noted are these: Homo sapiens, 3 hours compound, phospho-ERK normalized to GAPDH. In short, it runs like this:
as §1

For test [7], the system named is phospho-ERK in NCI-H460 (Q61H) cells. The test is described as above. Type of test: cell-based. The settings on record: Homo sapiens, NCI-H460, 3 h, 3 hours compound, phospho-ERK normalized to GAPDH. An outline of the steps: as §1
Test [8] concerns phospho-ERK in NCI-H727 (G12V) cells. The test is described as above. It counts as cell-based. The conditions noted are these: Homo sapiens, NCI-H727, 3 h, 3 hours compound, phospho-ERK normalized to GAPDH. In short, it runs like this: as §1
Test [9] deals with phospho-ERK in HCT116 (G13D) cells. The test is described as above. It counts as cell-based. The conditions noted are these: Homo sapiens, HCT-116, 3 hours compound, phospho-ERK normalized to GAPDH. In short, it runs like this: as §1
The test system of test [10] is pERK in A549 cells. The experiment in a line: Inhibition of KRas phosphorylation of ERK (Cisbio HTRF pERK assay). The settings on record: Homo sapiens, A549, read-out: Inhibition (HTRF IC50) of KRas-mediated Phosphorylation of ERK, A549.
For test [11], the system named is pERK in H727 cells. Described as above. The settings on record: Homo sapiens, NCI-H727, read-out: Inhibition (HTRF IC50) of KRas-mediated Phosphorylation of ERK, H727.
For test [12], the system named is pERK in H460 cells. Described as above. The settings on record: Homo sapiens, NCI-H460, read-out: Inhibition (HTRF IC50) of KRas-mediated Phosphorylation of ERK, H460.
Description: To harvest cells from flask using 0.05% Trypsin/EDTA solution. Add 10 mL of media to stop trypsinizing. Pipette the cells into a conical bottom 50 mL centrifuge tube and centrifuge 5 min×1000 rpm. • 2. Re-suspend the cell pellet in media, take a cell count, and then adjust the cell density using fresh media. • 3. Seed 6,000 cells into cell culture plate with 50 μL media. […] Incubate cell plate overnight in a 37° C., 5% CO2 incubator. • Compound titrations • 1. Use Tecan to complete the compound addition. Compounds start from 10 uM top, 3-fold dilution, and 10 doses. The final DMSO concentration is 0.8%. Dispensed 0.2 uM Trametinib as Min control. • 2. Incubate cell plate for 3 hrs in the incubator. • Detection with cisbio pERK HTRF kit • 1. […] At the end of the compound treatment, flick-off the media. • 3. Add 35 μL of lysis buffer per well using a Multidrop Combi. Then place on a plate agitator shaking at 300 rpm at 4° C. for 40 mins. • 4. Make up the HTRF antibody buffer. For each assay plate, mix 50 μL of d2-conjugate antibody with 950 μL of detection buffer. Similarly, mix 50 μL of Cryptate antibody with 950 μL of detection buffer. Then mix the two diluted antibodies together. • 5. Dispense 3.4 μL the antibody buffer to wells of an empty assay plate. Seal the plate and centrifuge plate 30 sec×1000 rpm. • 6. At the end of the 4° C. lysis, centrifuge the lysate plates 3 mins×1500 rpm. • 7. Use the Bravo to transfer 13.6 μL of lysate from cell culture plate to assay plate.
Then incubate assay plate for 2 hrs at room temperature. […] At the end of incubation, read plate on the Envision after centrifuging plate 30 sec× • 1000 rpm.
Test [13] has as its system pERK in ASPC1 cells. The test is described as above. The conditions noted are these: Homo sapiens, ASPC1, read-out: Inhibition (HTRF IC50) of KRas-mediated Phosphorylation of ERK, AsPC-1. On the technique in general: TR-FRET usually uses a lanthanide donor and a delayed reading to cut background.
In test [14] the target is KRas G12R (Homo sapiens, UniProt P01116, G12R). Briefly: biochemical.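 Also: TR-FRET displacement assay of compound binding to KRas, read after one hour at room temperature, potency from a four-parameter fit of percent-of-control values.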
Description: (§2) The ability of a compound to bind to KRas was measured using a TR-FRET displacement assay. […] After a 60-minute incubation at room temperature, the reaction was measured using a BMG LABTECH CLARIO star Plus via TR-FRET. […] The POC values were fit to a 4-parameter IC50 equation and the IC50 value reported.
The target of test [15] is KRas G12D (Homo sapiens, UniProt P01116, G12D). Briefly: biochemical.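 Also: TR-FRET displacement binding assay on KRas, read after a one-hour incubation at room temperature, IC50 fitted from percent-of-control values.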
Description: as §2
Test [16] concerns the target KRas G12V (Homo sapiens, UniProt P01116, G12V). The experiment in a line: biochemical.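 Also: KRas binding measured by TR-FRET displacement at room temperature, IC50 fitted from percent of control values.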
Description: as §2
Test [17] addresses T1, KRas Q61H (Homo sapiens, UniProt P01116, Q61H).
T1 construct: Biotinylated KRas (corresponding to amino acids 1-169, produced at Accelegan Inc.); biotin (biotinylated); purchased Accelegan Inc
Briefly: KRas binding assay (TR-FRET displacement).
Description: as §2

Test [18] has as its target T2, KRas G13D (Homo sapiens, UniProt P01116, G13D).
T2 construct: Biotinylated KRas (corresponding to amino acids 1-169, produced at Accelegan Inc.); biotin (biotinylated); purchased Accelegan Inc
The experiment in a line: KRas binding assay (TR-FRET displacement).
Description: as §2

Sequence of KRas G12D (P01116 1-169 isoform P01116-2 G12D): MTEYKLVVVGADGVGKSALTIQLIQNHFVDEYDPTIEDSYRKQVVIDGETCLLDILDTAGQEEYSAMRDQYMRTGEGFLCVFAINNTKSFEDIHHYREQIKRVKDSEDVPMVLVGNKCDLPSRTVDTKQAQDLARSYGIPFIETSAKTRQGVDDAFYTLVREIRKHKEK
Sequence of KRas G12R (P01116 1-169 isoform P01116-2 G12R): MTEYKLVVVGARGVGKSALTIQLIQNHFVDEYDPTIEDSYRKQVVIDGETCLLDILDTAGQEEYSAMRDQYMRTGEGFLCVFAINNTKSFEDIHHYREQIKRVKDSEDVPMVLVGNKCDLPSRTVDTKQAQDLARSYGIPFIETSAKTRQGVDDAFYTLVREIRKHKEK
Sequence of KRas G12V (P01116 1-169 isoform P01116-2 G12V): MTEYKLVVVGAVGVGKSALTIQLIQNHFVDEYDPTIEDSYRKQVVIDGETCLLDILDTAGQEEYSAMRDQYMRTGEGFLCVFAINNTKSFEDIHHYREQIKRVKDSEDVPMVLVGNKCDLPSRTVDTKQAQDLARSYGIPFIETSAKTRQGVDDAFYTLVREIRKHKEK
T2 sequence (P01116 1-169 isoform P01116-2 G13D): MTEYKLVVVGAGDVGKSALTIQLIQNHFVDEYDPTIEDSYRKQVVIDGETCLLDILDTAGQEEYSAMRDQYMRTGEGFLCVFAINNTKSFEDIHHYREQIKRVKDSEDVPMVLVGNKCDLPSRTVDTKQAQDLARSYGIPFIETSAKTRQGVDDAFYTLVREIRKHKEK
T1 sequence (P01116 1-169 isoform P01116-2 Q61H): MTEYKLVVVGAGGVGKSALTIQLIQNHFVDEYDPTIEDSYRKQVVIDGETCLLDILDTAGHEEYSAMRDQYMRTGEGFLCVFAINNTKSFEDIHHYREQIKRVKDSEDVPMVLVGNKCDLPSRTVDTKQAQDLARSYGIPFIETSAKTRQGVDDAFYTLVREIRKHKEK

Regarding `CCc1c(F)ccc2cc(O)cc(-c3ncc4c(N5CCOCC(C)(O)C5)nc(OC[C@@]56CCCN5C[C@H](F)C6)nc4c3F)c12` (some centres unmarked) [Example 63], the IC50 in [1] is 63 nM; in test [2], 5 nM; in [3] it was 1040 nM; in [4], 139 nM; in test [5], 15 nM; in [6], 27 nM. Further, the IC50 in test [7] was 38 nM; in test [8], 56 nM; in test [9], 44 nM; in [10], 19 nM; in test [11] it was 28 nM; in test [12] it was 21 nM. In [13], the IC50 was found to be 4 nM.
As to `C#Cc1c(F)ccc2cc(O)cc(-c3ncc4c(N5CCOCC(C)(O)C5)nc(OC[C@@]56CCCN5C[C@H](F)C6)nc4c3F)c12` (some centres unmarked) [Example 149], the IC50 in test [14] turned out to be 3 nM; in test [15], 4 nM; in test [1], 276 nM; in [2] it was 16 nM; in [3], 1760 nM; in test [4], 83 nM. The IC50 was found to be 9 nM in test [5]; 10 nM in test [6]; 71 nM in test [7]; 206 nM in [8]; 292 nM in test [9]; 290 nM in [10]. Further, the IC50 in test [11] is 111 nM; in test [16], at most 2 nM; in test [12], 180 nM; in [13], 25 nM.
`CCc1c(F)ccc2cc(O)cc(-c3ncc4c(NCc5cccnc5N)nc(OC[C@@]56CCCN5C[C@H](F)C6)nc4c3F)c12` [Example 136, 4-(4-(((2-aminopyridin-3-yl)methyl)amino)-8-fluoro-2-(((2R,7aS)-2-fluorohexahydro-1H-pyrrolizin-7a-yl)methoxy)pyrido[4,3-d]pyrimidin-7-yl)-5-ethyl-6-fluoronaphthalen-2-ol]: the IC50 is at most 2 nM in test [14]; 3 nM in test [15]; 243 nM in [1]; 7 nM in [2]; at least 10000 nM in test [3]; 19 nM in [4]. The IC50 was determined as 351 nM in test [5]; 4 nM in test [6]; 75 nM in [7]; 181 nM in [8]; 631 nM in test [9]; 52 nM in test [11]. Moreover, the half-inhibitory concentration (IC50) is at most 2 nM in [16], 83 nM in test [12] and 318 nM in test [13].
As for `CCc1c(F)ccc2cc(O)cc(-c3ncc4c(N5CCCn6nc(N)cc6C5)nc(OC[C@@]56CCCN5C[C@H](F)C6)nc4c3F)c12` [Example 61, 4-(4-(2-amino-7,8-dihydro-4H-pyrazolo[1,5-a][1,4]diazepin-5 (6H)-yl)-8-fluoro-2-(((2R,7aS)-2-fluorohexahydro-1H-pyrrolizin-7a-yl)methoxy)pyrido[4,3-d]pyrimidin-7-yl)-5-ethyl-6-fluoronaphthalen-2-ol], the IC50 in test [14] is at most 2 nM; in test [15] it was at most 2 nM; in test [1], 1640 nM; in test [2] it was 46 nM; in [3], at least 10000 nM; in test [4], 699 nM. For the same compound, the IC50 was 306 nM in test [5]; 162 nM in [6]; 550 nM in test [7]; 1110 nM in test [8]; 518 nM in test [9]; 250 nM in test [11]. In addition, the results for the IC50 in test [16], in test [12] and in [13] were at most 2 nM, 336 nM and 126 nM, respectively.
In the case of `CCc1c(F)ccc2cc(O)cc(-c3ncc4c(N5CCCC6(CNC6=O)C5)nc(OC[C@@]56CCCN5C[C@H](F)C6)nc4c3F)c12` (some centres unmarked) [Example 146], the IC50 in test [14] was 3 nM; in [15], at most 2 nM; in [1], 607 nM; in test [2], 22 nM; in test [3], 2530 nM; in test [4] it was 1060 nM. For the same compound, the IC50 in test [5] is 22 nM; in test [6], 15 nM; in test [7], 204 nM; in test [8], at least 10000 nM; in test [9], 1000 nM; in [11], 400 nM. Also, the IC50 in [16] is at most 2 nM; in test [12], 327 nM; in test [13], 92 nM.
As to `CCc1c(F)ccc2cc(O)cc(-c3ncc4c(N5CC6CC(O)CC5C6)nc(OC[C@@]56CCCN5C[C@H](F)C6)nc4c3F)c12` (some centres unmarked) [Example 58], the IC50 in test [14] is at most 2 nM; in [15], 6 nM; in test [1], 179 nM; in test [2] it was 23 nM; in test [3], 1310 nM; in [4] it was 455 nM. Moreover, the IC50 in test [5] was 24 nM; in test [6], 24 nM; in test [7], 111 nM; in test [8], 242 nM; in [9], 1460 nM; in test [11] it was 45 nM. Besides, the results for the half-maximal inhibitory concentration (IC50) in test [16], in test [12] and in test [13] were at most 2 nM, 69 nM and 75 nM, respectively.
As for `C#Cc1c(F)ccc2cc(O)cc(-c3ncc4c(NCc5c[nH]c6ncccc56)nc(OC[C@@]56CCCN5C[C@H](F)C6)nc4c3F)c12` [Example 150, 4-(4-(((1H-pyrrolo[2,3-b]pyridin-3-yl)methyl)amino)-8-fluoro-2-(((2R,7aS)-2-fluorohexahydro-1H-pyrrolizin-7a-yl)methoxy)pyrido[4,3-d]pyrimidin-7-yl)-5-ethynyl-6-fluoronaphthalen-2-ol], the IC50 in test [14] was at most 2 nM; in [15] it was at most 2 nM; in test [1], 115 nM; in test [2], 13 nM; in test [3] it was at least 10000 nM; in test [4] it was 45 nM. Also, the IC50 in test [5] is 435 nM; in test [6], 4 nM; in [7], 362 nM; in test [8] it was 626 nM; in test [9], 996 nM; in test [11], 12 nM. For the same compound, the IC50 was at most 2 nM in [16], 167 nM in test [12] and 66 nM in test [13].
`CCc1c(F)ccc2cc(O)cc(-c3ncc4c(N5CCCC6(CC(=O)N6)C5)nc(OC[C@@]56CCCN5C[C@H](F)C6)nc4c3F)c12` (some centres unmarked) [Example 57]: the IC50 is at most 2 nM in test [14]; at most 2 nM in test [15]; 2010 nM in test [1]; at most 2 nM in test [17]; 22 nM in test [2]; 4140 nM in test [3]. Further, the concentration for half-maximal inhibition (IC50) in [4] came to 668 nM; in test [5], 82 nM; in test [6], 50 nM; in test [7] it was 119 nM; in test [8] it was 115 nM; in [9] it was 1080 nM. The IC50 in test [18] was 3 nM; in test [10] it was 175 nM; in test [11], 55 nM; in test [16], at most 2 nM; in [12] it was 119 nM; in [13], 32 nM.
